# According to US20250367191A1, “TREATMENT OF MITOCHONDRIAL DISEASES WITH A CNS-PENETRANT SGC STIMULATOR ZAGOCIGUAT” (Tisento Therapeutics Inc., priority 2022, published 2025):
# System: participants diagnosed with MELAS
# Experiment: MELAS study: inflammatory biomarkers in plasma (InflammationMAP panel)
# Format: in vivo, human
# Method: Plasma and serum samples for biomarkers were collected from each participant. These biomarkers tested the target engagement of Compound I as well as the impact of the compound on disease. Plasma or serum samples were analyzed for concentrations of growth differentiation factor 15 (GDF-15), lactate, pyruvate, alanine, neurofilament light chain (NFL), vascular cell adhesion molecule 1, interleukin-1beta, asymmetric dimethylarginine (ADMA), L arginine, and other biomarkers relevant to the pathophysiology of mitochondrial disease, as well as their response to Compound I.
# This change was observed across all brain regions of interest. Effect size throughout this disclosure is defined as the means change from baseline in a particular parameter that is being measured, divided by the standard deviation. Effect sizes closer to 1 or −1 (positive or negative dependent on the direction of movement for the specific parameter, i.e. +0.8 to +1.0 or −0.8 to −1.0) are usually considered large. Effect sizes between 0.5 and 0.8 or −0.5 and −0.8 (positive or negative dependent on the direction of movement for the specific parameter) are usually considered moderate. Effect sizes closer to below 0.5 or −0.5 (positive or negative dependent on the direction of movement for the specific parameter) are usually considered small.
# 26 out of the 40 (65%) inflammatory biomarkers assessed in plasma as part of the InflammationMAP® panel were reduced with effect sizes less or equal than −0.3. Only 3 of the 40 (7.5%) inflammatory biomarkers assessed in plasma increased with an effect size equal or more than 0.3. The changes in concentrations as well as the effect sizes for inflammatory markers measured in plasma are summarized in the 3 tables below (Table 1: large effect size; Table 2: moderate effect size and Table 3: small effect size). The concentration values in Tables 1-3 were measured in the standard units for each of these laboratory measures as known in the art. Many of these biomarkers tended to increase again back to baseline levels after treatment with Compound I was stopped, supporting a drug effect.
structure (smiles),measurement,setting,value
"Fc1ccccc1Cc1nc(-c2nc(C(F)(F)F)n[nH]2)cn2ccnc12 [Compound I, zagociguat]","Alpha-1-Antitrypsin, Effect size","15 mg QD, day 29 vs baseline",−0.4
same,"Alpha-1-Antitrypsin, change in concentration, Mean","15 mg QD, day 29 vs baseline",−0.2
same,"Alpha-2-Macroglobulin, Effect size","15 mg QD, day 29 vs baseline",−0.3
same,"Alpha-2-Macroglobulin, change in concentration, Mean","15 mg QD, day 29 vs baseline",−0.2
same,"Beta-2-Microglobulin, Effect size","15 mg QD, day 29 vs baseline",−1.0
same,"Beta-2-Microglobulin, change in concentration, Mean","15 mg QD, day 29 vs baseline",−0.5
same,"Brain-Derived Neurotrophic Factor, Effect size","15 mg QD, day 29 vs baseline",−0.5
same,"Brain-Derived Neurotrophic Factor, change in concentration, Mean","15 mg QD, day 29 vs baseline",−2.1
same,"C-Reactive Protein, Effect size","15 mg QD, day 29 vs baseline",−0.6
same,"C-Reactive Protein, change in concentration, Mean","15 mg QD, day 29 vs baseline",−3.4
same,"EN-RAGE, Effect size","15 mg QD, day 29 vs baseline",−0.4
same,"EN-RAGE, change in concentration, Mean","15 mg QD, day 29 vs baseline",−28.4
same,"Eotaxin-1, Effect size","15 mg QD, day 29 vs baseline",−0.4
same,"Eotaxin-1, change in concentration, Mean","15 mg QD, day 29 vs baseline",−10.1
same,"Factor VII, Effect size","15 mg QD, day 29 vs baseline",−0.4
same,"Factor VII, change in concentration, Mean","15 mg QD, day 29 vs baseline",−87.4
same,"Ferritin, Effect size","15 mg QD, day 29 vs baseline",−0.6
same,"Ferritin, change in concentration, Mean","15 mg QD, day 29 vs baseline",−21.4
same,"Fibrinogen, Effect size","15 mg QD, day 29 vs baseline",−0.4
same,"Fibrinogen, change in concentration, Mean","15 mg QD, day 29 vs baseline",−1.4
same,"Granulocyte-Macrophage Colony-Stimulating Factor, Effect size","15 mg QD, day 29 vs baseline",−0.4
same,"Granulocyte-Macrophage Colony-Stimulating Factor, change in concentration, Mean","15 mg QD, day 29 vs baseline",−13.6
same,"Immunoglobulin A, Effect size","15 mg QD, day 29 vs baseline",−0.5
same,"Immunoglobulin A, change in concentration, Mean","15 mg QD, day 29 vs baseline",−0.4
same,"Immunoglobulin M, Effect size","15 mg QD, day 29 vs baseline",−0.6
same,"Immunoglobulin M, change in concentration, Mean","15 mg QD, day 29 vs baseline",−0.4
same,"Intercellular Adhesion Molecule 1, Effect size","15 mg QD, day 29 vs baseline",−0.3
same,"Intercellular Adhesion Molecule 1, change in concentration, Mean","15 mg QD, day 29 vs baseline",−12.1
same,"Interleukin-10 (IL-10), Effect size","15 mg QD, day 29 vs baseline",0.4
same,"Interleukin-10 (IL-10), change in concentration, Mean","15 mg QD, day 29 vs baseline",0.3
same,"Interleukin-17 (IL-17), Effect size","15 mg QD, day 29 vs baseline",0.5
same,"Interleukin-17 (IL-17), change in concentration, Mean","15 mg QD, day 29 vs baseline",0.03
same,"Interleukin-18, Effect size","15 mg QD, day 29 vs baseline",−0.4
same,"Interleukin-18, change in concentration, Mean","15 mg QD, day 29 vs baseline",−25.6
same,"Matrix Metalloproteinase-9 (MMP-9), Effect size","15 mg QD, day 29 vs baseline",0.4
same,"Matrix Metalloproteinase-9 (MMP-9), change in concentration, Mean","15 mg QD, day 29 vs baseline",37.3
same,"Myoglobin, Effect size","15 mg QD, day 29 vs baseline",−0.4
same,"Myoglobin, change in concentration, Mean","15 mg QD, day 29 vs baseline",−32.5
same,"Plasminogen Activator Inhibitor 1, Effect size","15 mg QD, day 29 vs baseline",−0.4
same,"Plasminogen Activator Inhibitor 1, change in concentration, Mean","15 mg QD, day 29 vs baseline",−11.6
same,"Pulmonary and Activation-Regulated Chemokine, Effect size","15 mg QD, day 29 vs baseline",−0.5
same,"Pulmonary and Activation-Regulated Chemokine, change in concentration, Mean","15 mg QD, day 29 vs baseline",−15.3
same,"Serum Amyloid P-Component, Effect size","15 mg QD, day 29 vs baseline",−0.9
same,"Serum Amyloid P-Component, change in concentration, Mean","15 mg QD, day 29 vs baseline",−5.0
same,"T-Cell-Specific Protein RANTES, Effect size","15 mg QD, day 29 vs baseline",−0.5
same,"T-Cell-Specific Protein RANTES, change in concentration, Mean","15 mg QD, day 29 vs baseline",−7.2
same,"Thyroxine-Binding Globulin, Effect size","15 mg QD, day 29 vs baseline",−0.7
same,"Thyroxine-Binding Globulin, change in concentration, Mean","15 mg QD, day 29 vs baseline",−8.4
same,"Tumor necrosis factor receptor 2, Effect size","15 mg QD, day 29 vs baseline",−0.7
same,"Tumor necrosis factor receptor 2, change in concentration, Mean","15 mg QD, day 29 vs baseline",−1.8
same,"Vascular Cell Adhesion Molecule-1, Effect size","15 mg QD, day 29 vs baseline",−0.6
same,"Vascular Cell Adhesion Molecule-1, change in concentration, Mean","15 mg QD, day 29 vs baseline",−98.3
same,"Vascular Endothelial Growth Factor, Effect size","15 mg QD, day 29 vs baseline",−0.3
same,"Vascular Endothelial Growth Factor, change in concentration, Mean","15 mg QD, day 29 vs baseline",−7.0
same,"Vitamin D-Binding Protein, Effect size","15 mg QD, day 29 vs baseline",−0.5
same,"Vitamin D-Binding Protein, change in concentration, Mean","15 mg QD, day 29 vs baseline",−26.5
same,"von Willebrand Factor, Effect size","15 mg QD, day 29 vs baseline",−0.4
same,"von Willebrand Factor, change in concentration, Mean","15 mg QD, day 29 vs baseline",−123.4
same,inflammatory biomarkers increased with an effect size equal or more than 0.3 (3 of the 40),40 biomarkers assessed,7.5%
same,inflammatory biomarkers reduced with effect sizes less or equal than −0.3 (26 out of the 40),40 biomarkers assessed,65%
